The Ki is the equilibrium dissociation constant of an inhibitor or competing ligand from its target. The inhibition is how much of the control response was suppressed.

The values that follow come from patent publication US9334283B2, “CCR1 antagonists and methods of use thereof” (Millennium Pharmaceuticals, Inc., priority 2002, dated 2016).

The test system of assay [1] is other G protein-coupled receptors and ion channels. The experiment in a line: Selectivity on other G protein-coupled receptors and ion channels. The conditions noted are these: assayed on other G protein-coupled receptors and ion channels; comparison in words.
Assay [2] has as its target T1, CCR1 (125I-MIP-1α binding to THP-1 cell membranes) (Homo sapiens, UniProt P32246).
T1 construct: Membranes were prepared from THP-1 cells (ATCC. #TIB202); host or cells: THP-1 cells (membrane preparation)
T1 sequence (P32246 1-355): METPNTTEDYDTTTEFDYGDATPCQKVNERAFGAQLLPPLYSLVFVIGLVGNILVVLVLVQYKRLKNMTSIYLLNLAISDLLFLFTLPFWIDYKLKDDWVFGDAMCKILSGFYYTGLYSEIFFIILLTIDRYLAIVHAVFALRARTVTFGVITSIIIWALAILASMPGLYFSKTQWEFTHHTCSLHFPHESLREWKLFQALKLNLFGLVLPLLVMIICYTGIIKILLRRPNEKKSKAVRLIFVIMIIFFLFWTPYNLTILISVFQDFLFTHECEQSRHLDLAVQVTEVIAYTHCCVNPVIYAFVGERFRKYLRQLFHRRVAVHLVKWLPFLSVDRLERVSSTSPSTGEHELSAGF
The assay can be described thus: THP-1 cell membrane 125I-MIP-1α binding assay. The conditions noted are these: 0.1 to 0.2 nM 125I-MIP-1α, 60 min at room temperature, read-out: Inhibition of 125I-MIP-1α Binding to THP-1 Cell Membranes (Ki (nM)). From the text:
The activity of compounds of the present invention can be assessed using suitable assays, such as receptor binding assays or chemotaxis assays. For example, as described in the Examples, small molecule antagonists of […] binding have been identified utilizing THP-1 cells membranes. Specifically, a high through-put receptor binding assay, which monitors ^125I-MIP-1α binding to THP-1 cell membranes, was used to identify small molecule antagonists which block binding of MIP-1α. Compounds of the present invention can also be identified by virtue of their ability to inhibit the activation steps triggered by binding of a chemokine (e.g., CCL2 (MCP-1) CCL3 (MIP-1α), CCL4 (MIP-1β), CCL5 (RANTES), CCL7 (MCP-3), CCL8 (MCP-2), CCL13 (MCP-4), CCL14 (HCC-1), CCL15 (Lkn-1), CCL23 (MPIF-1)) to its receptor (CCR-1), such as chemotaxis, integrin activation and granule mediator release. They can also be identified by virtue of their ability to block chemokine (e.g., CCL2 (MCP-1) CCL3 (MIP-1α), CCL4 (MIP-1β), CCL5 (RANTES), CCL7 (MCP-3), CCL8 (MCP-2), CCL13 (MCP-4), CCL14 (HCC-1), CCL15 (Lkn-1), CCL23 (MPIF-1)) induced chemotaxis of, for example, HL-60 cells, T-cells, peripheral blood mononuclear cells or eosinophils.
Membranes were prepared from THP-1 cells (ATCC. #TIB202). Cells were harvested by centrifugation, washed twice with PBS (phosphate-buffered saline), and the cell pellets were frozen at −70 to −85° C. The frozen pellet was thawed in ice-cold lysis buffer consisting of 5 mM HEPES (N-2-hydroxyethylpiperazine-N′-2-ethane-sulfonic acid) pH 7.5, 2 mM EDTA (ethylenediaminetetraacetic acid), 5 μg/ml each aprotinin, leupeptin, and chymostatin (protease inhibitors), and 100 μg/ml PMSF (phenyl methane sulfonyl fluoride—also a protease inhibitor), at a concentration of 1 to 5×10^7 cells/ml. This procedure results in cell lysis. The suspension was mixed well to resuspend all of the frozen cell pellet. Nuclei and cell debris were removed by centrifugation of 400×g for 10 minutes at 4° C. The supernatant was transferred to a fresh tube and the membrane fragments were collected by centrifugation at 25,000×g for 30 minutes at 4° C. The supernatant was aspirated and the pellet was resuspended in freezing buffer consisting of 10 mM HEPES pH 7.5, 300 mM sucrose, 1 μg/ml each aprotinin, leupeptin, and chymostatin, and 10 μg/ml PMSF (approximately 0.1 ml per each 10^8 cells). All clumps were resolved using a minihomogenizer, and the total protein concentration was determined using a protein assay kit (Bio-Rad, Hercules, Calif., cat #500-0002). […]
Binding Assays utilized the membranes described above. […] The filters were rinsed with approximately 600 μl of binding buffer containing 0.5 M NaCl, dried, and the amount of bound radioactivity was determined by scintillation counting.

The subject of assay [3] is neutrophil recruitment in response to murine MIP-1α. The assay can be described thus: In vivo efficacy model: neutrophil recruitment in response to MIP-1α (MPO activity in skin biopsies). Set-up: species or system guinea pig. The note with it: for oral bioavailability and efficacy in comparison to the Reference Example: guinea pig, comparison in words; for oral bioavailability and efficacy in comparison to the Reference Example / ED50: oral; for ED50: 30 minutes prior to intradermal murine MIP-1α (100 pmol/site), read-out: Efficacy: Guinea Pig Neutrophil Recruitment (ED50 (mg/kg)). On the procedure: An animal model of neutrophil recruitment in response to MIP-1α was used to evaluate the biological/pharmacodynamic activity of the compounds. Compounds were administered to female Hartley guinea pigs orally (doses ranged from about 0.5 mg/kg to about 5.0 mg/kg) 30 minutes prior to intradermal injections of murine MIP-1α (100 pmol/site) or phosphate buffered saline (PBS). Skin punch biopsies were taken 5 hours later and processed for myeloperoxidase (MPO) measurements. MPO activity was used as an indicator for neutrophil recruitment to the injection site.

The mark [4] stands for this setting: Cavia porcellus, Neutrophil, female Hartley guinea pigs, MPO at 5 hours.

Take `CC1(C)CN(CC/C=C2/c3cc(C(=O)O)ccc3OCc3ncccc32)CCC1(O)c1ccc(Cl)cc1` (racemic) [Example 3, racemic-5-{3-[4-(4-Chloro-phenyl)-4-hydroxy-3,3-dimethyl-piperidin-1-yl]-propylidene}-5,11-dihydro-10-oxa-1-aza-dibenzo[a,d]cycloheptene-7-carboxylic acid]: the “selectivity compared to structurally related compounds” value in assay [1] is given as “greater selectivity”. In addition, in assay [2], the Ki was found to be 3 nM. Besides, the inhibition at 2.5 mg/kg in assay [3] (Cavia porcellus, Neutrophil, at 2.5 mg/kg oral, female Hartley guinea pigs, intradermal murine MIP-1α, MPO at 5 hours, read-out: Efficacy: Guinea Pig Neutrophil Recruitment, % inhibition) was determined as 99%. For the same molecule, in assay [3], the “oral bioavailability and efficacy in comparison to the Reference Example” value was “greater oral bioavailability and efficacy”.

For `CC1(C)CN(CCC=C2c3cc(C(=O)O)ccc3OCc3ncccc32)CC[C@]1(O)c1ccc(Cl)cc1` [Example 1, (S)-5-{3-[4-(4-Chloro-phenyl)-4-hydroxy-3,3-dimethyl-piperidin-1-yl]-propylidene}-5,11-dihydro-10-oxa-1-aza-dibenzo[a,d]cycloheptene-7-carboxylic acid], the “selectivity compared to structurally related compounds” value in assay [1] is “greater selectivity”. Moreover, in assay [2], the inhibition constant (Ki) is 2.3 nM. The ED50 in assay [3] (setting [4]) stood at 0.12 mg/kg. For the same molecule, the “oral bioavailability and efficacy in comparison to the Reference Example” value in assay [3] is “greater oral bioavailability and efficacy”.

For the molecule `CC1(C)CN(CCC=C2c3cc(C(=O)O)ccc3OCc3ncccc32)CC[C@@]1(O)c1ccc(Cl)cc1` [Example 2, (R)-5-{3-[4-(4-Chloro-phenyl)-4-hydroxy-3,3-dimethyl-piperidin-1-yl]-propylidene}-5,11-dihydro-10-oxa-1-aza-dibenzo[a,d]cycloheptene-7-carboxylic acid], the Ki in assay [2] was above 1000 nM.

For `O=C(O)c1ccc2c(c1)/C(=C/CCN1CCC(O)(c3ccc(Cl)cc3)CC1)c1cccnc1CO2` [Reference Example, reference compound], the Ki in assay [2] was determined as 7.8 nM. The ED50 in assay [3] (setting [4]) stood at 3.6 mg/kg.
